Assay: xn = mol fraction of the nth substance listed
Settings: 100 kPa

CCCC[P+](C)(CCCC)CCCC.COS(=O)(=O)[O-] + CN(C)C=O
Settings | speed of sound [m/s] | viscosity [mPa·s]
293.15 K, x1 = 0.0474 | 1486.7 | 1.774
293.15 K, x1 = 0.0765 | 1492.6 | 2.681
293.15 K, x1 = 0.1106 | 1502.8 | 3.495
293.15 K, x1 = 0.1508 | 1513.1 | 5.02
293.15 K, x1 = 0.1991 | 1518.1 | 6.59
293.15 K, x1 = 0.2582 | 1529.5 | 12.72
293.15 K, x1 = 0.5542 | 1551.2 | 145.3
293.15 K, x1 = 0.6717 | 1554.1 | 246
293.15 K, x1 = 0.7768 | 1557.2 | 368
293.15 K, x1 = 0.8253 | 1559.8 | 439
293.15 K, x1 = 0.8837 | 1560.2 | 532
293.15 K, x1 = 1 | 1563.7 | 729
298.15 K, x1 = 0.0474 | 1472.5 | 1.934
298.15 K, x1 = 0.0765 | 1482.5 | 3.021
298.15 K, x1 = 0.1106 | 1491.5 | 4.201
298.15 K, x1 = 0.1508 | 1499.4 | 5.71
298.15 K, x1 = 0.1991 | 1506.2 | 9.12
298.15 K, x1 = 0.2582 | 1511.1 | 17.12
298.15 K, x1 = 0.3321 | 1523.3 | 24.22
298.15 K, x1 = 0.4272 | 1529.1 | 41
298.15 K, x1 = 0.5542 | 1535.5 | 80.9
298.15 K, x1 = 0.6717 | 1538.1 | 164.4
298.15 K, x1 = 0.7768 | 1540.5 | 267
298.15 K, x1 = 0.8253 | 1542.3 | 315
298.15 K, x1 = 0.8837 | 1544 | 389
298.15 K, x1 = 0.9362 | 1545 | 445
303.15 K, x1 = 0.0474 | 1453.5 | 1.154
303.15 K, x1 = 0.1106 | 1471.3 | 3.824
303.15 K, x1 = 0.1508 | 1479.2 | 4.91
303.15 K, x1 = 0.1991 | 1487.8 | 5.73
303.15 K, x1 = 0.2582 | 1497.1 | 11.88
303.15 K, x1 = 0.3321 | 1503.3 | 15.34
303.15 K, x1 = 0.4272 | 1510.1 | 31.14
303.15 K, x1 = 0.5542 | 1519.2 | 44.8
303.15 K, x1 = 0.6717 | 1520.1 | 115.1
303.15 K, x1 = 0.7768 | 1523.5 | 192.4
303.15 K, x1 = 0.8253 | 1525.4 | 233
303.15 K, x1 = 0.9362 | 1528.2 | 325
303.15 K, x1 = 1 | 1529.6 | 381
308.15 K, x1 = 0.0474 | 1434.9 | 2.009
308.15 K, x1 = 0.0765 | 1444.1 | 2.042
308.15 K, x1 = 0.1106 | 1452.2 | 3.858
308.15 K, x1 = 0.1508 | 1461.5 | 4.52
308.15 K, x1 = 0.1991 | 1470.1 | 5.96
308.15 K, x1 = 0.2582 | 1479.6 | 10.08
308.15 K, x1 = 0.3321 | 1485.8 | 13.81
308.15 K, x1 = 0.4272 | 1495.1 | 26.52
308.15 K, x1 = 0.5542 | 1501.1 | 37.9
308.15 K, x1 = 0.7768 | 1507 | 140.5
308.15 K, x1 = 0.8253 | 1509.1 | 170.5
308.15 K, x1 = 0.8837 | 1510.8 | 201
308.15 K, x1 = 0.9362 | 1513.8 | 242
308.15 K, x1 = 1 | 1514.3 | 286
313.15 K, x1 = 0.0765 | 1426.1 | 2.915
313.15 K, x1 = 0.1106 | 1433.2 | 3.012
313.15 K, x1 = 0.1508 | 1444.1 | 4.451
313.15 K, x1 = 0.1991 | 1452.6 | 5.02
313.15 K, x1 = 0.2582 | 1460.2 | 8.85
313.15 K, x1 = 0.3321 | 1469.2 | 13.52
313.15 K, x1 = 0.4272 | 1479.1 | –
313.15 K, x1 = 0.5542 | 1487.8 | 32.59
313.15 K, x1 = 0.6717 | 1489.8 | 66.5
313.15 K, x1 = 0.7768 | 1491.1 | 107.4
313.15 K, x1 = 0.8253 | 1494.8 | 127.5
313.15 K, x1 = 0.8837 | 1496.5 | 152.2
313.15 K, x1 = 0.9362 | 1497.5 | 182.7
318.15 K, x1 = 0.0474 | 1399.2 | 0.955
318.15 K, x1 = 0.0765 | 1409.7 | 1.855
318.15 K, x1 = 0.1106 | 1416.3 | 2.982
318.15 K, x1 = 0.1508 | 1425.5 | 4.147
318.15 K, x1 = 0.1991 | 1434.9 | 6.04
318.15 K, x1 = 0.4272 | 1463.7 | 20.74
318.15 K, x1 = 0.5542 | 1471.8 | 28.42
318.15 K, x1 = 0.6717 | 1475.1 | –
318.15 K, x1 = 0.7768 | 1478.2 | 81.3
318.15 K, x1 = 0.8253 | 1480.1 | 106.5
318.15 K, x1 = 0.8837 | 1482.6 | 127.4
318.15 K, x1 = 0.9362 | 1484.1 | 149.6
318.15 K, x1 = 1 | 1485.7 | 169.1
323.15 K, x1 = 0.0474 | 1382.2 | 1.897
323.15 K, x1 = 0.0765 | 1392.5 | 2.214
323.15 K, x1 = 0.1106 | 1398.2 | 2.469
323.15 K, x1 = 0.1991 | 1417.7 | 4.5
323.15 K, x1 = 0.2582 | 1425.1 | 9.48
323.15 K, x1 = 0.3321 | 1436.2 | 14.54
323.15 K, x1 = 0.4272 | 1445.5 | 19.56
323.15 K, x1 = 0.5542 | 1456 | 25.19
323.15 K, x1 = 0.6717 | 1461.6 | 43.1
323.15 K, x1 = 0.7768 | 1464.9 | –
323.15 K, x1 = 0.8253 | 1466.6 | 100.4
323.15 K, x1 = 0.9362 | 1471.7 | 123
323.15 K, x1 = 1 | 1472 | 133.4

— a compilation of properties of binary mixtures (doi:10.1016/j.molliq.2019.110987)
